Assays:
[1] = not given; remark: listed apart in the source
[2] = not given; remark: listed apart in the source
[3] = not given; remark: listed apart in the source

| Compound | log Kp (Homo sapiens; in vivo) | log Pe | pKa (physchem) | log Pe [1] | other results |
| --- | --- | --- | --- | --- | --- |
| CCc1ccc(O)cc1 | -5.01 cm/s | -4.05 cm/s | 10.2 |  |  |
| Nc1cc([N+](=O)[O-])ccc1O [2-AMINO-4-NITROPHENOL] | -6.62 cm/s | -4.84 cm/s | 6.7 | -3.96 cm/s |  |
| Cc1cc(=O)n(-c2ccccc2)n1C [ANTIPYRINE] | -7.74 cm/s | -6.2 cm/s |  | -5.4 cm/s |  |
| CCNc1nc(Cl)nc(NC(C)C)n1 [ATRAZINE] | -5.56 cm/s | -4.21 cm/s | < 2 |  |  |
| O=C(OCc1ccccc1)c1cccnc1 [BENZYL NICOTINATE] | -5.35 cm/s | -4.26 cm/s | 3.94 | -4.35 cm/s | log Pe [2]: -4.18 cm/s |
| Oc1ccc2ccccc2c1 [BETANAPHTHOL] |  |  | 9.4 |  | log Kp (Homo sapiens): -5.11 cm/s; log Kp ([3]; not told): -4.08 cm/s; log Pe ([2]; not told): -4.35 cm/s; log Pe ([1]; not told): -4.41 cm/s; log Pe (not told): -4.19 cm/s |
| Cn1c(=O)c2c(ncn2C)n(C)c1=O [CAFFEINE] |  |  |  |  | log Kp (Homo sapiens): -7.56 cm/s |
| O=C(O)Cc1ccccc1Nc1c(Cl)cccc1Cl [DICLOFENAC] | -5.3 cm/s | -4.33 cm/s |  |  |  |
| CN[C@@H](C)[C@H](O)c1ccccc1 [EPHEDRINE] | -5.75 cm/s | -4.82 cm/s |  |  |  |
| COc1ccc2c(c1)c(CC(=O)O)c(C)n2C(=O)c1ccc(Cl)cc1 [INDOMETHACIN] |  | -4.2 cm/s |  |  | log Kp (Homo sapiens): -5.39 cm/s |
| c1ccc2cnccc2c1 [ISOQUINOLINE] | -5.33 cm/s | -4.05 cm/s | 5.37 |  |  |
| CC(C(=O)O)c1cccc(C(=O)c2ccccc2)c1 (stereo unspecified) [KETOPROFEN] | -4.7 cm/s |  |  |  |  |
| COC(=O)c1cccnc1 [METHYL NICOTINATE] | -6.04 cm/s | -4.32 cm/s | 3.84 |  |  |
| CN1CCC[C@H]1c1cccnc1 [NICOTINE] |  |  | 8.08 |  | log Kp (Homo sapiens): -5.26 cm/s; log Kp ([3]; not told): -4.29 cm/s; log Pe ([2]; not told): -4.86 cm/s; log Pe ([1]; not told): -4.23 cm/s; log Pe (not told): -4.58 cm/s |
| O=[N+]([O-])c1ccc(O)cc1 [P-NITROPHENOL] | -5.81 cm/s | -4.33 cm/s | 6.9 | -4.09 cm/s | log Kp [3]: -5.08 cm/s; log Pe [2]: -5.24 cm/s |
| Oc1ccc(Cl)cc1 [PARACHLOROPHENOL] | -5 cm/s | -4.1 cm/s | 9.26 |  |  |
| CCC1(c2ccccc2)C(=O)NC(=O)NC1=O [PHENOBARBITAL] |  | -5.15 cm/s | 7.49 | -4.16 cm/s | log Kp (Homo sapiens): -6.9 cm/s |
| Oc1ccccc1 [PHENOL] |  |  |  |  | log Kp (Homo sapiens): -5.54 cm/s; log Kp ([3]; not told): -4.45 cm/s; log Pe ([2]; not told): -4.53 cm/s; log Pe ([1]; not told): -4 cm/s; log Pe (not told): -4.14 cm/s |
| CN1C(C(=O)Nc2ccccn2)=C(O)c2ccccc2S1(=O)=O [PIROXICAM] | -6.02 cm/s | -4.35 cm/s |  |  |  |
| CC(=O)[C@H]1CC[C@H]2[C@@H]3CCC4=CC(=O)CC[C@]4(C)[C@H]3CC[C@]12C [PROGESTERONE] | -5.08 cm/s |  |  |  | log Pe ([2]; not told): -4.31 cm/s; log Pe ([1]; not told): -4.63 cm/s; log Pe (not told): -4.56 cm/s |
| Oc1cccc(O)c1 [RESORCINOL] |  | -5.62 cm/s | 9.21 | -4.66 cm/s |  |
| O=C(O)c1ccccc1O [SALICYLIC ACID] |  |  |  |  | log Kp ([3]; not told): -4.7 cm/s; log Pe ([2]; not told): -4.74 cm/s; log Pe ([1]; not told): -3.98 cm/s; log Pe (not told): -4.16 cm/s |
| Cc1ccc(C(C)C)c(O)c1 [THYMOL] | -4.83 cm/s | -4.34 cm/s | 10.6 | -4.23 cm/s | log Kp [3]: -3.68 cm/s; log Pe [2]: -4.11 cm/s |
